Source: article PMC10882974 (Environmental Science & Technology, 2024)
Entries after “also recorded” stand apart in the source; their conditions may differ. Counter-ions that a name gives are not always drawn.

Assays:
[1] = toxicokinetics experiment IV: long-term exposure of L4 and adult worms; details: whole organism (worm homogenate), iv, exp IV, with E. coli, 48 h
Description: (§1) Three replicates of 1500 pooled C. elegans were used for each time point for each concentration. For experiments with E. coli, the OD600 was kept constant at 0.4.
(§2) C. elegans containing pellets were resuspended in 500 μL of methanol, and 0.6 g of […] ceramic beads (1.4 mm) were added to the vial. The samples were homogenized three times for 20 s using a Minilys homogenizer (Bertin Technologies) at middle speed. In between cycles, the samples were kept on ice. […] The supernatant was transferred to a glass tube, the pellet (including the ceramic beads) was resuspended in 500 μL of methanol, and the homogenization, sonication, and centrifugation cycle was repeated twice more to result in a three-step extraction. The total combined supernatant was concentrated to dryness under a gentle nitrogen stream and redissolved in 500 μL of methanol to a final concentration of the IS of 1 μM. Samples were stored at −20 °C until further analysis.
(§3) A one-compartment model was selected since chemical concentrations could only be measured for the whole organism. […] All parameters and units are summarized in SI A3.
(§4) The kinetic bioconcentration factor[33] was calculated with eq 3, and the ke and kt were only included when applicable to the respective experiment [drawing 4] 3
(§5) Model fitting was performed by adding the ordinary differential equations to the BYOM modeling package version 6.3 (http://www.debtox.info/byom.html) in Matlab R2022b.[34] […] Optimization was performed with the Melder–Mead Simplex Search method, minimizing the minus log-likelihood. […] Model script deviations from the BYOM model can be found in SI A9.

C. elegans [2] = test: as above
Description: as §1, §2, §3, §4, §5

[3] = toxicokinetics experiment II: short-term uptake of different concentrations; type: in vivo, Caenorhabditis elegans; details: k2f elimination rate constant of fluoxetine (k2FLX,sum), exp II, no E. coli, 2 h
Description: (§6) In between cycles, the samples were kept on ice. […] Samples were stored at −20 °C until further analysis.
(§7) All parameters and units are summarized in SI A3.

C. elegans [4] = test: as above; type: in vivo, Caenorhabditis elegans; details: for BCF FLX (kinetic bioconcentration factor) / k1 uptake rate constant: exp II, no E. coli, 2 h
Description: as §6, §7

[5] = toxicokinetics experiment III: effect of E. coli on uptake; type: in vivo, Caenorhabditis elegans; details: 10 mg/L, k2f elimination rate constant of fluoxetine (k2FLX,sum), exp III, 10 h
Description: as §6, §7

C. elegans [6] = test: as above; type: in vivo, Caenorhabditis elegans; details: for BCF FLX (kinetic bioconcentration factor) / kt transformation rate constant of fluoxetine to norfluoxetine: exp III, 10 h
Description: as §6, §7

C. elegans [7] = test: norfluoxetine uptake and coexposure with fluoxetine (SI A5); type: in vivo, Caenorhabditis elegans; details: fluoxetine 5 and 20 mg/L with norfluoxetine 20 mg/L
Description: Alternatively, there could be a concentration-dependent increase in metabolism over time resulting from enzyme induction. This was modeled with an extra metabolism rate constant ke that was included after 10 h (eq 1a and Figure 4C,D).

cyp35-a2 = cyp35-a2 gene expression (qRT-PCR); type: in vivo, Caenorhabditis elegans
Description: 1500 worms were collected in eppendorf tubes with 300 μL of RLT lysis buffer (Qiagen, Hilden, Germany) and homogenized using a Minilys homogenizer (Bertin Technologies) at middle speed four times for 20 s and kept on ice in between. Total RNA was isolated with the QIAshredder and RNeasy mini kits (Qiagen) according to the manufacturer’s protocol. The QuantiTect reverse transcription kit (Qiagen) was used for cDNA generation. RT-qPCR was performed on a Biorad CFX Opus 384 System using an iQ SYBR Green Supermix (Biorad) for amplification. The gene of interest was cyp35-a2, and cdc-42 was used as a housekeeping gene. Primers were generated by Biolegio (Nijmegen, The Netherlands); further details on the RT-qPCR and primers can be found in SI A7. Three biological replicates were used for each treatment.

[8] = stability of fluoxetine in S medium; details: 10 mg/L, 20 °C, 0.5-24 h
Description: After 0.5, 1, 2, 5, 10, and 24 h at 20 °C, samples of spiked medium were stored at −80 °C until analysis. […] Therefore, two replicates of the samples were washed three times with M9 buffer, while the other two were just centrifuged once, and the entire supernatant was removed.
E. coli containing pellets were resuspended in 250 μL of methanol and frozen in liquid nitrogen and then left at room temperature to thaw, followed by 5 min of sonication in a sonication bath. The freeze–thawing and sonication were repeated twice more and after this, samples were centrifuged at 15,000g for 15 min. The supernatant was stored at −20 °C until analysis.
Separation was performed on a UHPLC system (Shimadzu) with a Kinetex 1.7 μm C18 100 A LC column (150 mm × 2.1 mm, Phenomenex).

[9] = system: Gammarus pulex, Nile tilapia, and Japanese Medaka; details: cited from earlier work
[10] = toxicokinetics experiment I: elimination after 1 h exposure; type: in vivo, Caenorhabditis elegans; details: whole organism (worm homogenate)
Description: as §6, §7

C. elegans [11] = test: as above; type: in vivo, Caenorhabditis elegans; details: after 1 h exposure; no E. coli
Description: as §6, §7

[12] = system: marine mussels, freshwater mussels, Daphnia magna; details: cited from earlier work
[13] = exp IV, with E. coli, 0.5 mg/L, 48 h
[14] = exp IV, with E. coli, 20 mg/L, 48 h
[15] = combined experiments II, III, IV
[16] = with E. coli, 10 mg/L, k1, k2FLX, k2NF, kt constrained (eq 1b)
[17] = with E. coli, 10 mg/L, no constraint

CNCCC(Oc1ccc(C(F)(F)F)cc1)c1ccccc1 (centres unmarked) [fluoxetine, Fluoxetine hydrochloride]
k el ([1]; 0.5 mg/L, k2f elimination rate constant of fluoxetine (k2FLX,sum)): 0.000336 s⁻¹ | k el ([1]; 0.5 mg/L, ke extra metabolism rate constant after 10 h, 0.5 mg/L): 1.42e-05 s⁻¹ | k el ([1]; 20 mg/L, k2f elimination rate constant of fluoxetine (k2FLX,sum)): 0.000233 s⁻¹ | k el ([1]; 20 mg/L, ke extra metabolism rate constant after 10 h, 20 mg/L): 0.000144 s⁻¹ | steady-state concentrations, L4 versus adult C. elegans (life stage) (C. elegans [2]; 0.5 and 20 mg/L, 48 h): did not show significant differences; also recorded: tested, but no effect (L4 vs adult) | IR (ingestion rate) versus (toxic) effect on feeding (C. elegans [2]; E. coli related, modeled with eq 1b): IR (ingestion rate): negatively correlated–neurotoxic effect | k2 versus CYP P450 induction (linked to exposure time) (C. elegans [2]; adding extra ke parameter over time): k2: positively correlated (adding extra ke parameter over time) | BCF FLX (kinetic bioconcentration factor) (C. elegans [2]; [13]): 24.66 | k1 uptake rate constant (C. elegans [2]; [13]): 31.1 L/(kgnem h) | BCF FLX (kinetic bioconcentration factor) (C. elegans [2]; [14]): 6.36 | k1 uptake rate constant (C. elegans [2]; [14]): 9.01 L/(kgnem h) | kt transformation rate constant of fluoxetine to norfluoxetine (C. elegans [2]; [14]): 0.056 h⁻¹ | k el ([3]; whole organism (homogenate of pooled worms), 5 mg/L, k2FLX constrained (value of experiment I)): 0.000394 s⁻¹ | k el ([3]; whole organism (homogenate of pooled worms), 5 mg/L, no constraint): 0.000333 s⁻¹ | k el ([3]; whole organism (homogenate of pooled worms), 20 mg/L, k2FLX constrained (value of experiment I)): 0.000394 s⁻¹ | k el ([3]; whole organism (homogenate of pooled worms), 20 mg/L, no constraint): 0.000778 s⁻¹ | k el ([3]; whole organism (worm homogenate), 0.5 mg/L, k2FLX constrained (value of experiment I)): 0.000394 s⁻¹ | k el ([3]; whole organism (worm homogenate), 0.5 mg/L, no constraint): 0.000981 s⁻¹ | BCF versus exposure concentration (C. elegans [4]; [15]): BCF: negatively correlated | k1 versus exposure concentration (C. elegans [4]; [15]): k1: negatively correlated | BCF FLX (kinetic bioconcentration factor) (C. elegans [4]; 0.5 mg/L, k2FLX constrained): 15.85 | k1 uptake rate constant (C. elegans [4]; 0.5 mg/L, k2FLX constrained): 22.5 L/(kgnem h) | BCF FLX (kinetic bioconcentration factor) (C. elegans [4]; 0.5 mg/L, no constraint): 13.06 | k1 uptake rate constant (C. elegans [4]; 0.5 mg/L, no constraint): 46.1 L/(kgnem h) | BCF FLX (kinetic bioconcentration factor) (C. elegans [4]; 5 mg/L, k2FLX constrained): 7.18 | k1 uptake rate constant (C. elegans [4]; 5 mg/L, k2FLX constrained): 10.2 L/(kgnem h) | BCF FLX (kinetic bioconcentration factor) (C. elegans [4]; 5 mg/L, no constraint): 7.66 | k1 uptake rate constant (C. elegans [4]; 5 mg/L, no constraint): 9.19 L/(kgnem h) | BCF FLX (kinetic bioconcentration factor) (C. elegans [4]; 20 mg/L, k2FLX constrained): 3.20 | k1 uptake rate constant (C. elegans [4]; 20 mg/L, k2FLX constrained): 4.54 L/(kgnem h) | BCF FLX (kinetic bioconcentration factor) (C. elegans [4]; 20 mg/L, no constraint): 2.71 | k1 uptake rate constant (C. elegans [4]; 20 mg/L, no constraint): 7.58 L/(kgnem h) | k el ([5]; whole organism (homogenate of pooled worms), no E. coli): 0.000461 s⁻¹ | k el ([5]; whole organism (worm homogenate), with E. coli, k1, k2FLX, k2NF, kt constrained (eq 1b)): 0.000461 s⁻¹ | k el ([5]; whole organism (worm homogenate), with E. coli, no constraint): 0.000111 s⁻¹ | time to reach peak internal fluoxetine concentrations (C. elegans [6]; Figure 4): 2 to 5 h | effect of presence of bacteria on k2FLX,sum (C. elegans [6]; Figure 5): decreased to around half | BCF FLX (kinetic bioconcentration factor) (C. elegans [6]; no E. coli, 10 mg/L): 8.19 | kt transformation rate constant of fluoxetine to norfluoxetine (C. elegans [6]; no E. coli, 10 mg/L): 0.05 h⁻¹ | BCF FLX (kinetic bioconcentration factor) (C. elegans [6]; [16]): 8.19 | kt transformation rate constant of fluoxetine to norfluoxetine (C. elegans [6]; [16]): 0.05 h⁻¹ | BCF FLX (kinetic bioconcentration factor) (C. elegans [6]; [17]): 20.67 | kt transformation rate constant of fluoxetine to norfluoxetine (C. elegans [6]; [17]): 0.065 h⁻¹ | effect of presence of bacteria on internal concentration of fluoxetine (C. elegans [6]; experiment III, 10 mg/L): almost doubled | BCF versus presence of E. coli (C. elegans [6]; in vivo): BCF: positively correlated | k2 versus presence of E. coli (C. elegans [6]; in vivo): k2: negatively correlated | effect of coexposure with norfluoxetine on internal fluoxetine concentrations (C. elegans [7]): no significant differences; also recorded: tested, but no effect | increase in CYP gene expression (cyp35-a2) over time (cyp35-a2; 0.5 mg/L fluoxetine): not observed | CYP gene expression (cyp35-a2) over time (cyp35-a2; 20 mg/L fluoxetine, observed for 24 h, not yet for 10 h): increase in CYP gene expression over time | concentration of fluoxetine in S medium without C. elegans over time [8]: constant over time | k2 elimination rate [9]: 0.0008 to 0.08 h⁻¹ | k el ([10]; 1 h exposure (fluoxetine 0.5, 5, 20 mg/L; norfluoxetine 20 mg/L), then clean medium, no E. coli, read-out: k2sum elimination rate constant (+95% CI) (converted)): 0.000394 s⁻¹ | k el ([10]; 1 h exposure, then clean medium, slow phase after 1 h, no E. coli, read-out: k2slow elimination rate constant (+95% CI) (converted)): 0.000131 s⁻¹ | k el ([10]; calculated from k2sum and k2slow, read-out: k2fast elimination rate constant (converted)): 0.000264 s⁻¹ | elimination over time after transfer to clean medium (C. elegans [11]): almost all fluoxetine was eliminated after 6 h | BCF values in other species [12]: 100 to 10,000
